# Data from patent US20250177478A1, “G ALPHA Q/11 INHIBITORS FOR USE AS AN ANALGESIC” (University of Florida Research Foundation, Incorporated, priority 2022, published 2025).
# How the values were obtained:
# C57BL/6 mice = details: morphine 5 mg/kg s.c. alone, 120 min
# Source text: A. Experimental animals. C57BL/6 mice (6-8 weeks old) of both sexes were used. Mice were housed in groups on a 12-h light-dark cycle (6:00 am light cycle; 6:00 pm dark cycle) with food (Teklad Global 16% protein rodent diets; Envigo Inc., WI, USA) and water available ad libitum. Animal groups were compiled to ensure minimization of factors (e.g., weight, sex, and health). Mice were within 20-28 g in weight at start of all studies. All tested groups contained a control group and consisted of male and female mice. Males and females were tested on the same day but at different times so that they were not in the room at the same time. All the experiments were tested during the light cycle between 8:00 am and 3:00 pm to avoid any long-term disruption of sleep cycles. Mice were transferred to the behavioural testing room at least 45 min before the first test to acclimatize. Following behavioural evaluation, animals were killed by CO2 inhalation, followed by cervical dislocation and postmortem decapitation.
# B. Drug treatments. […] The dose of YM-254890 for subcutaneous injection was taken from previous published studies. The dose of morphine selected for subcutaneous administration (2.5, 5 and 10 mg kg-1) is commonly used in mouse analgesia. For the combined administration of morphine and YM-254890 on thermal anti-nociception, YM-254890 was administered 10 min before the morphine. The latency of response was measured before injection of drugs (baseline latency response) and at different time intervals (post-treatment latency response) after drugs injection.
# C. Intrathecal injections. Intrathecal (i.t.) administration was performed following the method described previously (Hylden J L et al. “Intrathecal morphine in mice: a new technique.” Eur J Pharmacol (1980) 67:313-316; Li D et al. “Direct Intrathecal Injection of Recombinant Adeno-associated Viruses in Adult Mice.” J Vis Exp (2019)) with slight modifications. All intrathecal injections were performed using a 25 μL Hamilton syringe with a 30-gauge needle. The injection volume was 5 μL for each mouse. […] Each solution was injected without injection cannulae. Intrathecal injections were made into the L5-L6 intervertebral space of unanesthetized mice. The flick of the tail was considered indicative of a successful i.t. administration.
# DRG nociceptors = assay: Whole cell patch-clamp recordings of acutely dissociated DRG nociceptors; type: cell-based, mouse
# Method: F. Acutely dissociated dorsal root ganglion (DRG) Preparation. Male or female mice between 1 and 2 months of age were used for acute DRG isolations. […] Dissociated DRG cultures were prepared as previously described (Perner C et al. “Protocol for dissection and culture of murine dorsal root ganglia neurons to study neuropeptide release.” STAR Protoc (2021) 2:100333). Briefly, DRGs were dissected from 1- to 2-month-old mice in Hank's buffered salt solution (HBSS) and digested with Collagenase A and Dispase II for 25 min at 37° C., centrifuged at 200×g for 5 min, and washed with Dulbecco's modified Eagle's medium (DMEM) supplemented with 10% fetal bovine serum (FBS), glutamate, sodium pyruvate, 1% penicillin and 1% streptomycin. DRGs were then triturated in Neurobasal A medium supplemented with 10% FBS, 1% penicillin, 1% streptomycin, 1% GlutaMAX, 2% B27, […] nerve growth factor (NGF) and […] glial cell line-derived neurotrophic factor (GDNF). After plating on laminin-coated coverslips, cells were incubated at 37° C. overnight. Experiments were performed the day after dissection.
# G. Whole cell patch-clamp recordings. Nociceptors were identified by physiological classification protocols (Petruska J C et al. “Subclassified acutely dissociated cells of rat DRG: histochemistry and patterns of capsaicin-, proton-, and ATP-activated currents.” J Neurophysiol (2000) 84:2365-2379) summarized in FIG. 10 and further by responsivity to morphine. Each experimental group consisted of 12-18 DRG recordings from three animals, 1-2 of which were female. Hyperpolarization-activated current (Ih) and kinetics of resulting transient currents were determined by stepping membrane potential from −60 to −110 mV for 500 ms in 10 mV increments (FIG. 10A). Outward currents were identified by first preconditioning membrane potential at −100 mV for 500 ms and then stepping from −60 to 40 mV in 20 mV increments for 200 ms (FIG. 10D). Inward current dynamics were determined by preconditioning at −80 mV and then stepping from −60 to 40 mV in 10 mV increments (FIG. 10G). A 6-s, 0- to 2-nA continuous ramp stimulation protocol was used to determine rheobase. Membrane capacitance (Cm), series resistance (Rs) and input resistance (Ri) were tested with a hyperpolarizing 10 mV pulse of 10 ms duration initially and at a 30 s interval throughout the recording period. Cells were recorded only if initial series resistance was ≤20 MΩ and excluded if Rs varied >20% while recording. Offline analysis identified clustering of a population n=30 with uniform morphine responsivity that was selected for further analysis, with basal parameters #SEM: Cm=27.31±4.72 pF, Ri=492±19.29 MQ, Ih=7.10±2.45 pA·pF−1, IA tau=8.39±0.41 ms and action potential (AP) tau=1.22±0.08 ms. K+ internal was used for all recordings, containing: 6 mM NaCl, 4 mM NaOH, 130 mM K-gluconate, 11 mM ethylene glycol-bis(β-aminoethyl ether)tetraacetic acid (EGTA), 1 mM CaCl2, 1 mM MgCl2, 10 mM N-(2-hydroxyethyl)piperazine-N′-(2-ethanesulphonic acid) (HEPES), 2 mM Na2ATP, and 0.2 mM Na2GTP 0.2, adjusted to pH 7.3-7.4 with HCl. External artificial CSF contained: 125 mM NaCl, 3 mM KCl, 1.2 mM KH2PO4, 1.2 mM MgSO4, 25 mM NaHCO3, 2 mM CaCl2), and 10 mM dextrose 10, adjusted to pH 7.3-7.4 with HCl.
structure (smiles),measurement,setting,value
CN1CC[C@]23c4c5ccc(O)c4O[C@H]2[C@@H](O)C=C[C@H]3[C@H]1C5 [morphine],locomotion in open-field test,C57BL/6 mice,locomotor-sensitizing effect
same,"rapidly inactivating A-type potassium currents (IA), voltage-step protocol 2",DRG nociceptors; YM-254890 or morphine alone,significantly inhibited IA
same,"AP amplitude, voltage-step protocol",DRG nociceptors; bath application alone: 100 nM YM or 1 μM morphine,moderately reduced AP amplitude
same,"excitability of DRG nociceptors (rheobase, 0-2 nA ramp stimulation)",DRG nociceptors; bath application alone: 1 μM morphine or 100 nM YM,substantially decreased excitability
